Data published in the NIST ThermoML archive (doi:10.1021/je900665a).

Conditions: Capillary rise

CCOCC [diethyl ether]
Conditions | surface tension liquid-gas [mN/m]
258.17 K | 21.49
263.17 K | 20.76
268.18 K | 20.13
273.18 K | 19.62
278.18 K | 18.97
283.18 K | 18.46
288.18 K | 17.82
293.16 K | 17.15
298.1 K | 16.58
303.17 K | 16
308.11 K | 15.44
313.19 K | 14.87
318.16 K | 14.14
323.16 K | 13.61
328.12 K | 12.96
333.18 K | 12.46
338.17 K | 11.92
343.17 K | 11.28
348.17 K | 10.75
353.19 K | 10.19
358.18 K | 9.575
363.16 K | 9.014
368.18 K | 8.459
373.17 K | 7.914

CC(C)OC(C)C [diisopropyl ether]
Conditions | surface tension liquid-gas [mN/m]
248.07 K | 22.7
253.23 K | 22.06
258.1 K | 21.55
263.18 K | 21.02
268.33 K | 20.52
273.46 K | 19.93
278.5 K | 19.26
283.18 K | 18.81
288.18 K | 18.3
293.16 K | 17.82
298.1 K | 17.26
303.17 K | 16.76
308.08 K | 16.18
313.27 K | 15.66
318.17 K | 15.09
323.19 K | 14.58
328.12 K | 14.1
333.12 K | 13.68
338.11 K | 13.15
343.1 K | 12.57
348.1 K | 12.11
353.1 K | 11.57
358.15 K | 11.01
363.17 K | 10.56
368.17 K | 10.04
373.17 K | 9.698

CCCCCCC [heptane]
Conditions | surface tension liquid-gas [mN/m]
298.13 K | 20
303.18 K | 19.58
308.12 K | 18.97
313.18 K | 18.41
318.17 K | 17.97
323.2 K | 17.48
328.15 K | 16.92
